Source: publication PMC10064984, “Anti-cyclooxygenase, anti-glycation, and anti-skin aging effect of Dendrobium officinale flowers’ aqueous extract and its phytochemical validation in aging” (Frontiers in Immunology, 2023)
“And” between values parts separate entries of the source, which are not always exact repeats. Equal values may be shown once. Blank lines part the entries; values can stand above or below the molecule they belong to.

How the values were obtained:
DPPH· scavenging = assay type: biochemical; details: mean ± SD, n = 3
[1] = ABTS·+ decolourisation capacity; assay type: biochemical; details: mean ± SD, n = 3
Procedure, shortened: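 IC50 values were derived graphically from dose-inhibition curves, with % inhibition calculated versus a buffer-only (0.2 M phosphate, pH 7.4) control. Each sample (200 μl) reacted for 10 min with 100 μl ABTS·+ reagent pre-set to A729 0.8 ± 0.05, then absorbance at 729 nm was measured in triplicate.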

[2] = FRAP total antioxidant capacity; assay type: biochemical;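 also: colourimetric FRAP kit assay read as absorbance in 96-well plates, values as mM FeSO4 via standard curve, EC1 being sample concentration matching 1.0 mmol/L FeSO4, Trolox positive control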
COX-2 = molecular target: T1, COX-2 (Homo sapiens, UniProt P35354); assay: Anti-COX-2 assay (COX-2 Inhibitor Screening Kit); assay type: biochemical
T1 construct: purchased Beyotime S0168
T1 sequence (P35354 18-604): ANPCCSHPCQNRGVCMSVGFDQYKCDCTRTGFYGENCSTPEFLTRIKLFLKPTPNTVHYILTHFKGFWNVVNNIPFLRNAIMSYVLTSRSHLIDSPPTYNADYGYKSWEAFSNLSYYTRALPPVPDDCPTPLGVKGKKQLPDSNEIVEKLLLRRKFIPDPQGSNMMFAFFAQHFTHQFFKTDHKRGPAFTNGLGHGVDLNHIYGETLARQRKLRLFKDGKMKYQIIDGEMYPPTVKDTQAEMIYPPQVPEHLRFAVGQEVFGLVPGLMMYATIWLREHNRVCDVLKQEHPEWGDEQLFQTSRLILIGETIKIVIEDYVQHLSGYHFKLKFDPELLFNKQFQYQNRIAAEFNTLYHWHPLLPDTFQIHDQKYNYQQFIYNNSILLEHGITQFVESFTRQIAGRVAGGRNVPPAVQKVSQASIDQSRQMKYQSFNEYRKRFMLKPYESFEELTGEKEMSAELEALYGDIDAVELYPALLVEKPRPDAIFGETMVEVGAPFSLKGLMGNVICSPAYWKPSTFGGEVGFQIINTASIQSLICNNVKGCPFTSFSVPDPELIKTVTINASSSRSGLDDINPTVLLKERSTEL

[3] = Fluorescent AGEs formation in a BSA-fructose/glucose system; assay type: biochemical; details: mean ± SD, n = 3; read-out: BSA-glycation IC50
Procedure, shortened: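 Fluorescent AGE inhibition was measured in triplicate, correcting sample and control fluorescence for BSA-free blanks. Glycation used BSA incubated with D-fructose and D-glucose, with samples dissolved in DMSO:water (1:4).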

[4] = Online UPLC-PDA-MS-ABTS·+ scavenging (postcolumn derivatisation); details: within DOF extract
Experimental: Online identification of antioxidant components of DOF extract was performed using a UPLC system (Milford, MA, USA) consisting of a Waters photodiode array detector and a Waters postcolumn derivatisation system supplying fresh ABTS solution (UPLC-PDA-QDa-ABTS). […] The detection wavelengths were set at 280 and 734 nm, and the injection volume of the sample was 10 μl.
To detect radical scavengers, the UPLC system was coupled with a Waters pump, which supplied freshly prepared ABTS·+ solution into a reaction coil (15 m, 0.25 mm ID) with a flow rate of 0.2 ml/min at 37°C. Negative peaks were recorded based on a decrease of absorbance at 729 nm after the reaction of individual compounds with the ABTS·+ radical. For preliminary identification of compounds, a Waters Acquity QDa mass detector in negative ionisation mode was connected in series to PDA with the following parameters: electrospray ion source; cone voltage, 15 V; atomiser, N2; and scanning range, 100–800 m/z.

[5] = lower part of sheet (compound series)

IC50 (DPPH· scavenging): > 5000 µM
IC50 [1]: 74.41 ± 0.69 µM
COX-2 inhibition (in words) (COX-2): no inhibitory effects
inhibition at 31.25 µM (COX-2; 31.25 μM, single replicates): 30%
COX-2 inhibition (COX-2; 31.25 μM, single replicates, listed as T7, 31.25 µM): 20.65% and 19.20%
COX-2 inhibition (COX-2; 62.5 μM, single replicates, listed as T7, 62.5 µM): -16.69% and -16.14% and 33.41%
COX-2 inhibition (COX-2; 125 μM, single replicates, listed as T7, 125 µM): -28.47% and -18.44% and 17.41%
COX-2 inhibition (COX-2; 250 μM, single replicates, listed as T7, 250 µM): -29.84% and -23.37% and -7.75%
COX-2 inhibition (COX-2; 500 μM, single replicates, listed as T7, 500 µM): -24.98% and -23.56% and -9.18%
COX-2 inhibition (COX-2; 1000 μM, single replicates, listed as T7, 1000 µM): -59.66% and -32.74% and -11.22%
COX-2 inhibition (COX-2; 2000 μM (2mM), single replicates, listed as T7): -38.84% and -31.81% and -15.79%
IC50 [3]: 258 ± 7.56 µM
Structure (SMILES): O=c1cc(-c2ccc(O)cc2)oc2c(C3OC(CO)C(O)C(O)C3O)c(O)c(C3OC(CO)C(O)C(O)C3O)c(O)c12 (stereo not shown) [compound 10, Vicenin-2]
FRAP EC1 [2, 5]: >5000 µM
online ABTS radical scavenging (size of negative peaks at 734 nm) [4]: strongest ABTS radical scavengers

IC50 (DPPH· scavenging): 43.3 ± 1.75 µM
IC50 [1]: 33.1 ± 0.37 µM
COX-2 inhibition (in words) (COX-2): great COX-2 inhibition
inhibition at 3.125 µM (COX-2; 3.125 μM, single replicates): 23.1%
COX-2 inhibition (COX-2; 3.125 μM, single replicates, listed as T3, 3.125 µM): 13.73% and 18.58%
inhibition at 6.25 µM (COX-2; 6.25 μM, single replicates): 42.8%
COX-2 inhibition (COX-2; 6.25 μM, single replicates, listed as T3, 6.25 µM): 37.16%
COX-2 inhibition (COX-2; 12.5 μM, single replicates, listed as T3, 12.5 µM): 68.24% and 51.05% and 71.69%
inhibition at 25 µM (COX-2; 25 μM, single replicates): 78%
COX-2 inhibition (COX-2; 25 μM, single replicates, listed as T3, 25 µM): 72.08% and 76.61%
inhibition at 50 µM (COX-2; 50 μM, single replicates): 81.2%
COX-2 inhibition (COX-2; 50 μM, single replicates, listed as T3, 50 µM): 77.16% and 78.42%
inhibition at 100 µM (COX-2; 100 μM, single replicates): 81.5%
COX-2 inhibition (COX-2; 100 μM, single replicates, listed as T3, 100 µM): 79.28% and 81.06%
inhibition at 200 µM (COX-2; 200 μM, single replicates): 84.3%
COX-2 inhibition (COX-2; 200 μM, single replicates, listed as T3, 200 µM): 81.14% and 83.16%
IC50 [3]: 222 ± 13.5 µM
Structure (SMILES): C[C@@H]1O[C@@H](OC[C@H]2O[C@@H](Oc3c(-c4ccc(O)c(O)c4)oc4cc(O)cc(O)c4c3=O)[C@H](O)[C@@H](O)[C@@H]2O)[C@H](O)[C@H](O)[C@H]1O [compound 24, Rutin]
FRAP EC1 [2, 5]: 205.0 ± 12.2 µM
FRAP EC1 ([2]; mean ± SD, n = 3): 205.0 ± 12.2 µM
online ABTS radical scavenging (size of negative peaks at 734 nm) [4]: strongest ABTS radical scavengers
